From ChEMBL document CHEMBL4261607 (Eur J Med Chem, 2018) come the findings set out here.

Matrix protein 2 (Influenza A virus (A/Udorn/307/1972(H3N2)), UniProt P0DOF8), sequence (P0DOF8 whole entry): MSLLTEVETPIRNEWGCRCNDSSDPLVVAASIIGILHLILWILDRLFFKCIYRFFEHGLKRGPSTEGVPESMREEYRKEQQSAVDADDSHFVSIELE

The subject of one series is Influenza A virus. As to the kind of experiment: Antiviral activity against Influenza A virus H5N1 infected in MDCK cells after 2 to 3 days by crystal violet staining-based plaque reduction assay. It counts as functional, organism-based.
Details: not given; call rule not given here
`Cc1cc(C(=O)NCCSCc2ccc([N+](=O)[O-])cc2)c(C)o1` had an EC50 of 1.25 µM.

Another series addresses Matrix protein 2 (Influenza A virus (A/Udorn/307/1972(H3N2)), UniProt P0DOF8).
Details: not given
`CCOC(=O)C1=C[C@@H](OC(CC)CC)[C@H](NC(C)=O)[C@@H](N)C1` [OSELTAMIVIR]: the EC50 result is recorded as “Not Active”.

Test system in the next series: not listed separately
In words: Cytotoxicity against MDCK cells assessed as reduction in cell viability after 24 hrs by MTT assay. To be noted: dog. It counts as cell-based, Canis lupus familiaris.
`N#CCCN(Cc1cccs1)S(=O)(=O)c1cccc(F)c1`: the cytotoxic concentration (CC50) at 24 h was above 206 µM.
Same read-out and setting: as for `Cc1ccc(S(=O)(=O)N(CCC#N)Cc2ccco2)cc1`, the figure is above 219 µM; as for `N#CCCN(Cc1cccs1)S(=O)(=O)c1ccc(C#N)cc1`, above 201 µM; as for `N#CCCN(Cc1ccco1)S(=O)(=O)c1ccc(C(F)(F)F)cc1`, above 186 µM.
Still for that read-out and setting: as for `O=S(=O)(c1ccc(Br)cc1)N(Cc1cccs1)Cc1cccs1`, the figure is 81 µM; as for `N#CCCN(Cc1ccco1)S(=O)(=O)c1ccc(C#N)cc1`, above 212 µM; as for `N#CCCN(Cc1cccs1)S(=O)(=O)c1ccc(N)cc1`, above 208 µM.
For the molecule `N#CCCN(Cc1ccco1)S(=O)(=O)c1ccc(F)cc1`, the CC50 at 24 h lay within 216 to 227 µM.
As to `N#CCCN(Cc1ccco1)S(=O)(=O)c1ccc(Br)cc1`, the CC50 at 24 h is above 181 µM.
`N#CCCN(Cc1cccs1)S(=O)(=O)c1ccc(F)cc1`: the CC50 at 24 h is above 206 µM.
Same read-out and setting: as for `N#CCCN(Cc1ccc[nH]1)S(=O)(=O)c1ccc(Br)cc1`, the figure is above 181 µM; as for `Cc1cccc(S(=O)(=O)N(CCC#N)Cc2ccco2)c1`, above 219 µM.
Same read-out and setting: as for `N#CCCN(Cc1cccs1)S(=O)(=O)c1ccc(Cl)cc1`, the figure is above 196 µM.
The same measure, in the same setting: to `Cc1ccc(S(=O)(=O)N(CCC#N)Cc2cccs2)cc1` belongs 127 µM; to `COc1ccc(S(=O)(=O)N(CCC#N)Cc2cccs2)cc1`, above 198 µM; to `N#CCCN(Cc1cccs1)S(=O)(=O)c1ccc([N+](=O)[O-])cc1`, above 190 µM.
With `N#CCCN(Cc1cccs1)S(=O)(=O)c1ccc(C(F)(F)F)cc1`, the CC50 at 24 h was above 178 µM.
Still for that read-out and setting: to `NC12CC3CC(CC(C3)C1)C2` [AMANTADINE] belongs above 441 µM; to `N#CCCN(Cc1cccs1)S(=O)(=O)c1ccc(Br)cc1`, above 173 µM.
On the same count and under the same terms, as for `CC(=O)c1ccc(S(=O)(=O)N(CCC#N)Cc2cccs2)cc1`, the figure is above 191 µM.
Still for that read-out and setting: to `O=C(O)CCN(Cc1cccs1)S(=O)(=O)c1ccc(Br)cc1` belongs above 165 µM.
Regarding `CCCN(CCC#N)S(=O)(=O)c1ccc(Br)cc1`, the CC50 at 24 h turned out to be 116 µM.
Still for that read-out and setting: to `N#CCCN(Cc1ccccc1)S(=O)(=O)c1ccc(F)cc1` belongs above 210 µM; to `N#CCCN(Cc1ccco1)S(=O)(=O)c1ccc(Cl)cc1`, above 205 µM.
Turning to `CCOC(=O)CCN(Cc1cccs1)S(=O)(=O)c1ccc(Br)cc1`, the cytotoxic concentration (CC50) at 24 h was above 154 µM.
On the same count and under the same terms, as for `CCCN(Cc1cccs1)S(=O)(=O)c1ccc(Br)cc1`, the figure is above 178 µM.
On to `COc1ccc(S(=O)(=O)N(CCC#N)Cc2ccco2)cc1`, for which the CC50 at 24 h is above 208 µM.
On to `N#CCCN(Cc1cccs1)S(=O)(=O)c1ccccc1F`, for which the CC50 at 24 h was above 206 µM.

Test system in a further series: not listed separately
As to the kind of experiment: Cytotoxicity in yeast assessed as reduction in cell proliferation. It counts as organism-based. The note with it: saccharomyces cerevisiae, yeast cells.
On to `N#CCCN(Cc1cccs1)S(=O)(=O)c1cccc(F)c1`, for which the CC50 is above 206 µM.
For the molecule `Cc1ccc(S(=O)(=O)N(CCC#N)Cc2ccco2)cc1`, the CC50 was above 220 µM.
On the same count and under the same terms, as for `N#CCCN(Cc1cccs1)S(=O)(=O)c1ccc(C#N)cc1`, the figure is above 202 µM.
Turning to `N#CCCN(Cc1ccco1)S(=O)(=O)c1ccc(C(F)(F)F)cc1`, the CC50 is above 187 µM.
In the case of `O=S(=O)(c1ccc(Br)cc1)N(Cc1cccs1)Cc1cccs1`, the CC50 was above 156 µM.
In the case of `N#CCCN(Cc1ccco1)S(=O)(=O)c1ccc(C#N)cc1`, the CC50 was above 212 µM.
For `N#CCCN(Cc1cccs1)S(=O)(=O)c1ccc(N)cc1`, the CC50 is above 179 µM.
As to `N#CCCN(Cc1ccco1)S(=O)(=O)c1ccc(F)cc1`, the 50% cytotoxic concentration (CC50) was 216 to 217 µM.
Still for that read-out and setting: as for `N#CCCN(Cc1ccco1)S(=O)(=O)c1ccc(Br)cc1`, the figure is above 182 µM.
For the molecule `N#CCCN(Cc1cccs1)S(=O)(=O)c1ccc(F)cc1`, the CC50 is above 206 µM.
The same measure, in the same setting: as for `N#CCCN(Cc1ccc[nH]1)S(=O)(=O)c1ccc(Br)cc1`, the figure is above 182 µM; as for `Cc1cccc(S(=O)(=O)N(CCC#N)Cc2ccco2)c1`, above 220 µM; as for `N#CCCN(Cc1cccs1)S(=O)(=O)c1ccc(Cl)cc1`, above 197 µM.
Same read-out and setting: as for `Cc1ccc(S(=O)(=O)N(CCC#N)Cc2cccs2)cc1`, the figure is above 209 µM; as for `COc1ccc(S(=O)(=O)N(CCC#N)Cc2cccs2)cc1`, above 199 µM; as for `N#CCCN(Cc1cccs1)S(=O)(=O)c1ccc([N+](=O)[O-])cc1`, above 191 µM.
Same read-out and setting: to `CCOC(=O)C1=C[C@@H](OC(CC)CC)[C@H](NC(C)=O)[C@@H](N)C1` [OSELTAMIVIR] belongs above 214 µM; to `N#CCCN(Cc1cccs1)S(=O)(=O)c1ccc(C(F)(F)F)cc1`, above 179 µM; to `NC12CC3CC(CC(C3)C1)C2` [AMANTADINE], above 443 µM.
On to `N#CCCN(Cc1cccs1)S(=O)(=O)c1ccc(Br)cc1`, for which the cytotoxic concentration (CC50) is above 174 µM.
As to `CC(=O)c1ccc(S(=O)(=O)N(CCC#N)Cc2cccs2)cc1`, the CC50 was above 192 µM.
With `O=C(O)CCN(Cc1cccs1)S(=O)(=O)c1ccc(Br)cc1`, the CC50 is above 166 µM.
For `CCCN(CCC#N)S(=O)(=O)c1ccc(Br)cc1`, the CC50 was above 202 µM.
On the same count and under the same terms, to `N#CCCN(Cc1ccccc1)S(=O)(=O)c1ccc(F)cc1` belongs above 210 µM; to `N#CCCN(Cc1ccco1)S(=O)(=O)c1ccc(Cl)cc1`, above 206 µM; to `CCOC(=O)CCN(Cc1cccs1)S(=O)(=O)c1ccc(Br)cc1`, above 155 µM.
Same read-out and setting: as for `CCCN(Cc1cccs1)S(=O)(=O)c1ccc(Br)cc1`, the figure is above 179 µM; as for `COc1ccc(S(=O)(=O)N(CCC#N)Cc2ccco2)cc1`, above 209 µM.
In the case of `N#CCCN(Cc1cccs1)S(=O)(=O)c1ccccc1F`, the CC50 is above 206 µM.
